Measurements as given in US12616761B2, “CXCR4-targeting compounds” (PROVINCIAL HEALTH SERVICES AUTHORITY, priority 2020, dated 2026).
Where two headings read alike, the source gives them in different places. Positions of bridges follow the written chain, without caps; N, C: chain ends. Non-standard residues stand in square brackets, D forms with d. Residues, ends and D or L forms follow the SMILES beside them. 2Nal = N[C@@H](Cc1ccc2ccccc2c1)C(=O)O; Lys(iPr) = CC(C)NCCCC[C@H](N)C(=O)O; hTyr = N[C@@H](CCc1ccc(O)cc1)C(=O)O

How the values were obtained:
CXCR4 [1] = molecular target: T1, CXCR4 (Homo sapiens, UniProt P61073); assay: Competitive binding assay: [125I]SDF-1α displacement on CHO:CXCR4 cells; conditions: [125I]SDF-1α competition on CHO:CXCR4 cells; given as ranges; read-out: IC50 (nM), Binding Affinity to CXCR4
T1 construct: expressed in transfected cells; host or cells: CHO:CXCR4 cells (gift from Drs. David McDermott and Xiaoyuan Chen, NIH)
Procedure: The Z138 mantle cell lymphoma cell line was given by Dr. Christian Steidl (BC Cancer) as a gift. The CHO:CXCR4 cell line was given by Drs. David McDermott and Xiaoyuan Chen (National Institutes of Health) as a gift. The cell line was cultured in a 5% CO2 atmosphere at 37° C. in a humidified incubator. The Z138 cells were incubated with IMDM medium (Life Technologies Corporations) and the CHO:CXCR4 cells were incubated with F12K medium (Life Technologies Corporations), both of which were supplemented with 10% fetal bovine serum (Sigma-Aldrich), 100 I.U./mL penicillin, and 100 μg/mL streptomycin (Penicillin-Streptomycin Solution).
CHO:CXCR4 cells were seeded at a density of 1×10^5 cells/well in 24-well poly-D-lysine coated plates (Corning BioCoat) and incubated with [^1251]SDF-1α (0.01 nM, PerkinElmer) and competing nonradioactive ligands ([…]). The cells, radioligand, and competing peptides were incubated for 1 h at 27° C. with moderate shaking. Following the incubation period, the supernatant was aspirated, followed by three washes with 1 mL of ice-cold PBS. Cells were harvested with 200 μL of trypsin and counted on a y counter. Data were plotted in GraphPad Prism 7 to determine IC50 values (GraphPad Software, Inc., La Jolla, CA). The values are reported as mean±standard deviation.

[2] = system: non-Hodgkin lymphoma, renal cell carcinoma, lung cancer, colorectal cancer, and breast cancer xenograft models; conditions: colorectal and breast cancer xenografts; cited from earlier work
small cell lung cancer = small cell lung cancer patients; cited from earlier work
CXCR4 [3] = molecular target: T1, CXCR4; conditions: read-out: IC50, block of SDF-1α binding to CXCR4; cited from earlier work

T1 sequence (P61073 whole entry): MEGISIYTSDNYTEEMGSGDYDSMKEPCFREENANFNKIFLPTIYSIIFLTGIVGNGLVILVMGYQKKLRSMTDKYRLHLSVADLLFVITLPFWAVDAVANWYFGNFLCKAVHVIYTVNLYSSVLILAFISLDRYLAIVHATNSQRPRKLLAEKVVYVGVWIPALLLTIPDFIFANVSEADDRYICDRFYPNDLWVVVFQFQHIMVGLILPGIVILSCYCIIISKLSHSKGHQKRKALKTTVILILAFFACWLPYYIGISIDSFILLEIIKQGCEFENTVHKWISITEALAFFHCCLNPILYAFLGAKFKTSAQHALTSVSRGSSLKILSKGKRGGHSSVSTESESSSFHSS

Compound | IC50 (CXCR4 [1]) [nM] | also measured
CC(=O)NCCCC[C@@H]1NC(=O)CC[C@H](C(=O)N[C@@H](CCCCNC(C)C)C(N)=O)NC(=O)[C@@H](C)NC(=O)[C@H](Cc2ccc3ccccc3c2)NC(=O)[C@@H](CCCNC(=N)N)NC(=O)[C@H](CCCCNC(C)C)NC(=O)[C@H](CCC(N)=O)NC1=O [cyclo[Lys(Ac)-Gln-Lys(iPr)-D-Arg-2Nal-D-Ala-D-Glu]-Lys(iPr)] (K(Ac)Q[Lys(iPr)][dR][2Nal][dA][dE][Lys(iPr)]-NH2; lactam N-7) | 10 to 50 | 
CC(=O)NCCCC[C@@H]1NC(=O)CC[C@H](C(=O)N[C@@H](CCCCNC(C)C)C(N)=O)NC(=O)[C@@H](C)NC(=O)[C@H](Cc2ccc3ccccc3c2)NC(=O)[C@@H](CCCNC(=N)N)NC(=O)[C@H](CCCCNC(C)C)NC(=O)[C@H](CCC(=O)O)NC1=O [cyclo[Lys(Ac)-Glu-Lys(iPr)-D-Arg-2Nal-D-Ala-D-Glu]-Lys(iPr)] (K(Ac)E[Lys(iPr)][dR][2Nal][dA][dE][Lys(iPr)]-NH2; lactam N-7) | 50 to 100 | 
CC(=O)NCCCC[C@@H]1NC(=O)CC[C@H](C(=O)N[C@@H](CCCCNC(C)C)C(N)=O)NC(=O)CNC(=O)[C@H](Cc2ccc3ccccc3c2)NC(=O)[C@@H](CCCNC(=N)N)NC(=O)[C@H](CCCCNC(C)C)NC(=O)[C@H](Cc2ccc(O)cc2)NC1=O [cyclo[Lys(Ac)-Tyr-Lys(iPr)-D-Arg-2Nal-Gly-D-Glu]-Lys(iPr)] (K(Ac)Y[Lys(iPr)][dR][2Nal]G[dE][Lys(iPr)]-NH2; lactam N-7) | 1 to 10 | 
CC(C)NCCCC[C@H](NC(=O)[C@H]1CCC(=O)N[C@@H](Cc2ccccc2)C(=O)N[C@H](Cc2ccc(O)cc2)C(=O)N[C@@H](CCCCNC(C)C)C(=O)N[C@H](CCCNC(=N)N)C(=O)N[C@@H](Cc2ccc3ccccc3c2)C(=O)N[C@H](C)C(=O)N1)C(N)=O [cyclo[Phe-D-Tyr-Lys(iPr)-DArg-2Nal-D-Ala-D-Glu]-Lys(iPr)] (F[dY][Lys(iPr)][dR][2Nal][dA][dE][Lys(iPr)]-NH2; lactam N-7) | 50 to 100 | 
CC(C)C[C@H]1NC(=O)[C@H](Cc2ccc3ccccc3c2)NC(=O)[C@@H](CCCNC(=N)N)NC(=O)[C@H](CCCCNC(C)C)NC(=O)[C@H](Cc2ccc(O)cc2)NC(=O)[C@H](Cc2ccccc2)NC(=O)CC[C@H](C(=O)N[C@@H](CCCCNC(C)C)C(N)=O)NC1=O [cyclo[Phe-Tyr-Lys(iPr)-D-Arg-2Nal-D-Leu-D-Glu]-Lys(iPr)] (FY[Lys(iPr)][dR][2Nal][dL][dE][Lys(iPr)]-NH2; lactam N-7) | 50 to 100 | 
CC(C)NCCCC[C@H](NC(=O)[C@H]1CCC(=O)N[C@@H](Cc2ccccc2)C(=O)N[C@@H](CCc2ccc(O)cc2)C(=O)N[C@@H](CCCCNC(C)C)C(=O)N[C@H](CCCNC(=N)N)C(=O)N[C@@H](Cc2ccc3ccccc3c2)C(=O)N[C@H](C)C(=O)N1)C(N)=O [cyclo[Phe-hTyr-Lys(iPr)-D-Arg-2-Nal-D-Ala-D-Glu]-Lys(iPr)] (F[hTyr][Lys(iPr)][dR][2Nal][dA][dE][Lys(iPr)]-NH2; lactam N-7) | 50 to 100 | 
cyclo[Phe-Tyr-Lys(iPr)-D-Arg-2-Nal-Gly-D-Glu]-Lys(iPr)-NH2 [LY2510924] |  | growth of xenograft models [2]: able to inhibit growth; treatment efficacy of carboplatin/etoposide chemotherapy (small cell lung cancer): failed to improve treatment efficacy; IC50 (CXCR4 [3]): 0.079 nM
